Results from BindingDB's records for doi:10.7270/Q2319T8T (The Scripps Research Institute Molecular Screening Center, 2007).
Counter-ions that a name gives are not always drawn.

Molecular target: Steroidogenic factor 1 (Homo sapiens, UniProt Q13285)
Experiment: blockers of SF-1 LBD reporter transcription – cell-based, CHO-K1, Gal4-SF-1 LBD, luciferase luminescence, dose response (AID 600)
[1] = inactive by the depositor's call

Sequence of Steroidogenic factor 1 (Q13285 whole entry, the tested form may be a part): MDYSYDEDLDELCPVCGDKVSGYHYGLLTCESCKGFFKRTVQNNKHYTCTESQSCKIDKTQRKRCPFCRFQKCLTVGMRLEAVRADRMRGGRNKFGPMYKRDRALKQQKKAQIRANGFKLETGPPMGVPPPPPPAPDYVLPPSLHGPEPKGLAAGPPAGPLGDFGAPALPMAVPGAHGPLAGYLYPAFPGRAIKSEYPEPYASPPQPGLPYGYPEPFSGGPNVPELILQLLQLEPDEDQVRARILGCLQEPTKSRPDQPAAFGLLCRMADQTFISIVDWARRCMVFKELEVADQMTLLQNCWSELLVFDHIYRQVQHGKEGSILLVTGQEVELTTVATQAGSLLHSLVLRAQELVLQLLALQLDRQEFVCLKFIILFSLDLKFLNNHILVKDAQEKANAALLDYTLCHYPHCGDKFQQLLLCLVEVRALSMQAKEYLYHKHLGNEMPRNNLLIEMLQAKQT

Row | Structure (SMILES) | IC50 | IC50 [1]
1 | COc1cccc(-c2nnc(NC(=O)c3ccc(S(=O)(=O)N4CC(C)OC(C)C4)cc3)o2)c1 (stereo unspecified) [4-(2,6-dimethylmorpholin-4-yl)sulfonyl-N-[5-(3-methoxyphenyl)-1,3,4-oxadiazol-2-yl]benzamide] | > 3.67 µM | –
2 | CC1CCCCN1S(=O)(=O)c1ccc(C(=O)Nc2nnc(-c3cccs3)o2)cc1 (stereo unspecified) [4-(2-methylpiperidin-1-yl)sulfonyl-N-(5-thiophen-2-yl-1,3,4-oxadiazol-2-yl)benzamide] | – | 17.7 µM
3 | CC1CCCN(c2ncnc3c2cnn3-c2ccccc2)C1 (stereo unspecified) [4-(3-methyl-1-piperidinyl)-1-phenylpyrazolo[3,4-d]pyrimidine] | 6.8 µM | –
4 | c1ccc(-n2nnc3c(N4CCOCC4)ncnc32)cc1 [4-(3-phenyl-7-triazolo[4,5-d]pyrimidinyl)morpholine] | > 99 µM | –
5 | COc1ccc(-c2nnc(NC(=O)c3ccc(S(=O)(=O)N4COCC4(C)C)cc3)o2)cc1 [4-(4,4-dimethyloxazolidin-3-yl)sulfonyl-N-[5-(4-methoxyphenyl)-1,3,4-oxadiazol-2-yl]benzamide] | – | 13.5 µM
6 | c1ccc(N2CCN(c3nc(-c4ccccn4)nc4ccccc34)CC2)cc1 [4-(4-phenyl-1-piperazinyl)-2-(2-pyridinyl)quinazoline] | 5.65 µM | –
7 | CCc1ccc2oc(-c3ccc(N)cc3)nc2c1 [4-(5-ethyl-1,3-benzoxazol-2-yl)aniline] | > 3.67 µM | –
8 | CCOc1ccc(-c2cc(CCCC(=O)NCCc3ccc(OC)c(OC)c3OC)no2)cc1 [4-(5-p-phenetylisoxazol-3-yl)-N-[2-(2,3,4-trimethoxyphenyl)ethyl]butyramide] | 7.53 µM | –
9 | Cc1ccc2[nH]c3c(N4CCCCCC4)ncnc3c2c1 [4-(azepan-1-yl)-8-methyl-5H-pyrimido[5,4-b]indole] | – | 10.9 µM
10 | CCOC(=O)c1cnc(-n2nc(C)cc2C)nc1NC1CCCCC1 [4-(cyclohexylamino)-2-(3,5-dimethyl-1-pyrazolyl)-5-pyrimidinecarboxylic acid ethyl ester] | 5.67 µM | –
11 | CCCCN(CCCC)S(=O)(=O)c1ccc(C(=O)Nc2nnc(CSC)o2)cc1 [4-(dibutylsulfamoyl)-N-[5-(methylsulfanylmethyl)-1,3,4-oxadiazol-2-yl]benzamide] | – | 16.5 µM
12 | CSCc1nnc(NC(=O)c2ccc(S(=O)(=O)N(CC(C)C)CC(C)C)cc2)o1 [4-(diisobutylsulfamoyl)-N-[5-[(methylthio)methyl]-1,3,4-oxadiazol-2-yl]benzamide] | > 11 µM | –
13 | CC1CCCCC1NS(=O)(=O)c1ccc(S(=O)(=O)NCc2ccncc2)cc1 (stereo unspecified) [4-N-(2-methylcyclohexyl)-1-N-(pyridin-4-ylmethyl)benzene-1,4-disulfonamide] | > 33 µM | –
14 | CCN(C1CCCCC1)S(=O)(=O)c1ccc(S(=O)(=O)NCc2ccncc2)cc1 [4-N-cyclohexyl-4-N-ethyl-1-N-(pyridin-4-ylmethyl)benzene-1,4-disulfonamide] | – | 19.5 µM
15 | Cc1cccc(-n2ncc3c(N4CCOCC4)ncnc32)c1 [4-[1-(3-methylphenyl)-4-pyrazolo[3,4-d]pyrimidinyl]morpholine] | 4.02 µM | –
16 | CCOC(=O)N1CCN(C(=O)C2CCN(c3ncnc4c3sc3cccc(F)c34)CC2)CC1 [4-[1-(9-fluorobenzothiopheno[3,2-d]pyrimidin-4-yl)isonipecotoyl]piperazine-1-carboxylic acid ethyl ester] | 7.93 µM | –
17 | COC(=O)c1ccc(-n2c(O)cc(N3CCC(n4c(=O)[nH]c5ccccc54)CC3)c2O)cc1 [4-[2,5-dioxo-3-[4-(2-oxo-3H-benzimidazol-1-yl)-1-piperidinyl]-1-pyrrolidinyl]benzoic acid methyl ester] | > 99 µM | –
18 | COc1ccc(OC)c(Nc2nc(-c3ccc(O)c(O)c3)cs2)c1 [4-[2-(2,5-Dimethoxy-phenylamino)-thiazol-4-yl]-benzene-1,2-diol] | > 3.67 µM | –
19 | COC(=O)c1ccc(Oc2cc(C)nc(-n3nc(C)cc3C)n2)cc1 [4-[2-(3,5-dimethylpyrazol-1-yl)-6-methyl-pyrimidin-4-yl]oxybenzoic acid methyl ester] | 8.58 µM | –
20 | COc1ccccc1-c1nnc2sc(-c3ccc(N(C)C)cc3)nn12 [4-[3-(2-methoxyphenyl)-[1,2,4]triazolo[3,4-b][1,3,4]thiadiazol-6-yl]-N,N-dimethyl-aniline] | 6.26 µM | –
21 | O=C(Oc1ccc(-c2nc(-c3ccccn3)no2)cc1)c1ccccc1 [4-[3-(2-pyridinyl)-1,2,4-oxadiazol-5-yl]phenyl benzoate] | 6.83 µM | –
22 | COc1ccc(-c2noc(CCCC(=O)NCCc3ccccc3)n2)cc1OC [4-[3-(3,4-dimethoxyphenyl)-1,2,4-oxadiazol-5-yl]-N-(2-phenylethyl)butanamide] | 4.15 µM | –
23 | COc1ccc(-c2noc(CCCC(=O)O)n2)cc1 [4-[3-(4-methoxyphenyl)-1,2,4-oxadiazol-5-yl]butanoic acid] | 0.625 µM | –
24 | Fc1ccc2[nH]c3c(N4CCN(Cc5ccc6c(c5)OCO6)CC4)ncnc3c2c1 [4-[4-(1,3-benzodioxol-5-ylmethyl)-1-piperazinyl]-8-fluoro-5H-pyrimido[5,4-b]indole] | 7.8 µM | –
25 | COc1ccc2c(c1)[nH]c1c(N3CCN(Cc4ccc5c(c4)OCO5)CC3)ncnc12 [4-[4-(1,3-benzodioxol-5-ylmethyl)piperazin-1-yl]-7-methoxy-5H-pyrimido[5,4-b]indole] | – | 13.2 µM
26 | COc1cccc(N2CCN(c3ncnc4c3[nH]c3ccccc34)CC2C)c1 (stereo unspecified) [4-[4-(3-methoxyphenyl)-3-methyl-1-piperazinyl]-5H-pyrimido[5,4-b]indole] | – | 28.6 µM

Row | Structure (SMILES) | IC50 | IC50 [1]
27 | Oc1ccc(N2CCN(c3ncnc4sc5c(c34)CCC5)CC2)cc1 [4-[4-(7,8-dihydro-6H-cyclopenta[4,5]thieno[1,2-c]pyrimidin-1-yl)-1-piperazinyl]phenol] | – | 13.7 µM
28 | Clc1ccc(OCCN2CCN(c3ncnc4sccc34)CC2)cc1 [4-[4-[2-(4-chloranylphenoxy)ethyl]piperazin-1-yl]thieno[2,3-d]pyrimidine] | 3.44 µM | –
29 | Cn1nc(CC(=O)Nc2ccc(N3CCN(C(=O)OC(C)(C)C)CC3)cc2)c2ccccc2c1=O [4-[4-[[2-(3-methyl-4-oxo-1-phthalazinyl)-1-oxoethyl]amino]phenyl]-1-piperazinecarboxylic acid tert-butyl ester] | 2.55 µM | –
30 | CCOc1ccc(-c2cc(CCCC(=O)NCCCOC)no2)cc1 [4-[5-(4-ethoxyphenyl)-1,2-oxazol-3-yl]-N-(3-methoxypropyl)butanamide] | 4.46 µM | –
31 | CCOC(=O)N1CCC(NC(=O)C2CCCN(Cc3nc(-c4cccc(Cl)c4)oc3C)C2)CC1 (stereo unspecified) [4-[[1-[[2-(3-chlorophenyl)-5-methyl-oxazol-4-yl]methyl]nipecotoyl]amino]piperidine-1-carboxylic acid ethyl ester] | – | 11.3 µM
32 | COc1cc(CN2CCN(c3cc(C)ccc3C)CC2)ccc1O [4-[[4-(2,5-dimethylphenyl)-1-piperazinyl]methyl]-2-methoxyphenol] | 4.07 µM | –
33 | COc1cc(CN=O)ccc1OCc1ccc(C(=O)O)cc1 [4-[[4-(hydroximinomethyl)-2-methoxy-phenoxy]methyl]benzoic acid] | 1.16 µM | –
34 | CCN(CC)c1ccc2cc(NC(=O)CCC(=O)O)c(=O)oc2c1 [4-[[7-(diethylamino)-2-keto-chromen-3-yl]amino]-4-keto-butyric acid] | 5.11 µM | –
35 | CN(CC1CCCO1)S(=O)(=O)c1ccc(C(=O)Nc2nc(-c3ccccn3)cs2)cc1 (stereo unspecified) [4-[methyl(2-oxolanylmethyl)sulfamoyl]-N-[4-(2-pyridinyl)-2-thiazolyl]benzamide] | > 3.67 µM | –
36 | CC(=O)c1c(C)[nH]c(C(=O)OCCCCN2C(=O)c3ccccc3C2=O)c1C [4-acetyl-3,5-dimethyl-1H-pyrrole-2-carboxylic acid 4-(1,3-dioxo-2-isoindolyl)butyl ester] | 2.6 µM | –
37 | Nc1nonc1C(=O)NCCNCc1cc(Br)ccc1OCc1ccc(F)cc1 [4-amino-N-[2-[[5-bromo-2-(4-fluorobenzyl)oxy-benzyl]amino]ethyl]furazan-3-carboxamide;hydrochloride] | 4.46 µM | –
38 | CCCCOc1ncnc2c1[nH]c1ccc(F)cc12 [4-butoxy-8-fluoranyl-5H-pyrimido[5,4-b]indole] | – | 11.4 µM
39 | CCCCOc1ccc(S(=O)(=O)Nc2cccnc2)cc1 [4-butoxy-N-(3-pyridinyl)benzenesulfonamide] | – | 25 µM
40 | COC(=O)c1nn(-c2ccc(-c3ccccc3)cc2)cc1O [4-hydroxy-1-(4-phenylphenyl)-3-pyrazolecarboxylic acid methyl ester] | > 33 µM | –
41 | Cc1ccc(-c2cnc(NC(=O)CCC(=O)N3CCCCC3)n2C)cc1 [4-keto-N-[1-methyl-5-(p-tolyl)imidazol-2-yl]-4-piperidino-butyramide] | > 99 µM | –
42 | COc1ccc(C(=O)Nn2c(SCC(=O)NCC3CCCO3)nc3ccccc3c2=O)cc1 (stereo unspecified) [4-methoxy-N-[4-oxidanylidene-2-[2-oxidanylidene-2-(oxolan-2-ylmethylamino)ethyl]sulfanyl-quinazolin-3-yl]benzamide] | 4.29 µM | –
43 | COc1ccc(C(=O)NC(=O)Nc2cc(C)ccn2)cc1 [4-methoxy-N-[(4-methyl-2-pyridyl)carbamoyl]benzamide] | > 1.22 µM | –
44 | CCOc1ccc(OCc2cccc(C(=O)N3CCOCC3)c2)cc1 [4-{3-[(4-ethoxyphenoxy)methyl]benzoyl}morpholine] | > 1.22 µM | –
45 | Cc1c2ccncc2c(C)c2c1[nH]c1ccccc12 [5,11-dimethyl-2H-pyrido[4,3-b]carbazole] | > 3.67 µM | –
46 | O=C(NC1CC1)c1ccc(-c2nc3ccccc3s2)s1 [5-(1,3-benzothiazol-2-yl)-N-cyclopropyl-2-thiophenecarboxamide] | 2.81 µM | –
47 | Cc1oc(-c2ccc3c(c2)OCCO3)cc1C(=O)O [5-(2,3-dihydro-1,4-benzodioxin-6-yl)-2-methyl-3-furancarboxylic acid] | 5.55 µM | –
48 | COc1ccc(-c2nc(-c3ccccc3)no2)c(OC)c1 [5-(2,4-dimethoxyphenyl)-3-phenyl-1,2,4-oxadiazole] | 3.52 µM | –
49 | Cc1ccc(-c2nc(-c3ccccc3)no2)c(Cl)c1 [5-(2-chloranyl-4-methyl-phenyl)-3-phenyl-1,2,4-oxadiazole] | 4.71 µM | –
50 | c1ccc(-c2noc(-c3ccc4ccccc4c3)n2)cc1 [5-(2-naphthalenyl)-3-phenyl-1,2,4-oxadiazole] | 8.89 µM | –
51 | Clc1ccc(-c2nc(-c3ccccn3)no2)cc1Cl [5-(3,4-dichlorophenyl)-3-(2-pyridinyl)-1,2,4-oxadiazole] | 5.62 µM | –
